Data taken from patent US10669258B2, “3-sulfonyl-5-aminopyridine-2,4-diol APJ agonists” (BRISTOL-MYERS SQUIBB COMPANY, priority 2016, dated 2020).

These compounds were tested against T1, human APJ receptor (Homo sapiens, UniProt P35414) (assay: Intracellular cAMP accumulation assay (APJ hcAMP, HTRF)). Conditions: HEK293 cells stably expressing human APJ receptor; inhibition of forskolin-mediated cAMP production; Table 1; read-out: hAPJ cAMP EC50 Potency range.
T1 construct: expressed in transfected cells; host or cells: HEK293
T1 sequence (P35414 1-380): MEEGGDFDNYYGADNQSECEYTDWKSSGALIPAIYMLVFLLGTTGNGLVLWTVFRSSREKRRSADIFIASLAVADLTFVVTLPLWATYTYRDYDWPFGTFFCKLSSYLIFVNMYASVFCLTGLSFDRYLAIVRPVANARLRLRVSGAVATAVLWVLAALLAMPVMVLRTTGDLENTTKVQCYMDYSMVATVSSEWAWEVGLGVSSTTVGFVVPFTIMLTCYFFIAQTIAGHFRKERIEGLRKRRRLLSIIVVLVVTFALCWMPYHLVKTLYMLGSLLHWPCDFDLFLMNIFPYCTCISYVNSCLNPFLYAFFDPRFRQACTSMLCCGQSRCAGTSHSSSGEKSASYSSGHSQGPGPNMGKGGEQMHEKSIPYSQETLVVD
Assay type: cell-based
Summary of the method: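 Inhibition of forskolin (2 μM)-driven cAMP, with […], measured by HTRF after 30 min room-temperature compound exposure of stably transfected HEK293 cells. cAMP read from a standard curve; variable-slope fit gives EC50, and maximal inhibition is normalised to (Pyr1)apelin-13 as 100%.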

Row | SMILES | EC50 [nM]
1 | CCCCc1nc(O)c(S(=O)(=O)c2ccc(-c3cccnc3C)cc2)c(O)c1N(c1ccccc1)C(C)C [Example 025, 6-butyl-5-(isopropyl(phenyl)amino)-3-((4-(2-methylpyridin-3-yl)phenyl)sulfonyl)pyridine-2,4-diol] | 0.01 to 10
2 | CCCCc1nc(O)c(S(=O)(=O)c2ccc(Br)cc2)c(O)c1N(C)c1cccc(C)c1 [Example 093, 3-((4-bromophenyl)sulfonyl)-6-butyl-5-(methyl(m-tolyl)amino)pyridine-2,4-diol] | 10 to 100
3 | CCCCc1nc(O)c(S(=O)(=O)c2ccc(-c3ccnc(F)c3C)cc2)c(O)c1N1CCC(C)c2ccccc21 (stereo not shown) [Example 044, 6-butyl-3-((4-(2-fluoro-3-methylpyridin-4-yl)phenyl)sulfonyl)-5-(4-methyl-3,4-dihydroquinolin-1(2H)-yl)pyridine-2,4-diol] | 0.01 to 10
4 | CCN(c1ccccc1)c1c(CC2CC2)nc(O)c(S(=O)(=O)c2ccc(-c3ccccc3C(=O)NC)cc2)c1O [Example 055, 4′-((6-(cyclopropylmethyl)-5-(ethyl(phenyl)amino)-2,4-dihydroxypyridin-3-yl)sulfonyl)-N-methyl-[1,1′-biphenyl]-2-carboxamide] | 0.01 to 10
5 | CC(C)N(c1ccccc1)c1c(-c2ccn(C)n2)nc(O)c(S(=O)(=O)c2ccc(-c3ccccc3C(N)=O)cc2)c1O [Example 166, 4′-((2,4-dihydroxy-5-(isopropyl(phen-yl)amino)-6-(1-methyl-1H-pyrazol-3-yl)pyridin-3-yl)sulfonyl)-[1,1′-biphenyl]-2-carboxamide] | 0.01 to 10
6 | CCCCc1nc(O)c(S(=O)(=O)c2ccc(-c3ccc(F)nc3C)cc2)c(O)c1N(C)c1ccccc1F [Example 118, 6-butyl-3-((4-(6-fluoro-2-methylpyridin-3-yl)phenyl)sulfonyl)-5-((2-fluorophenyl)(methyl)amino)pyridine-2,4-diol] | 0.01 to 10

More lines, now with the values ahead:

Row | EC50 [nM] | SMILES
7 | 0.01 to 10 | CCCCc1nc(O)c(S(=O)(=O)c2ccc(-c3ccncc3C)cc2)c(O)c1N(C)c1ccc(C)cc1 [Example 094, 6-butyl-5-(methyl(p-tolyl)amino)-3-((4-(3-methylpyridin-4-yl)phenyl)sulfonyl)pyridine-2,4-diol]
8 | 0.01 to 10 | CCCCc1nc(O)c(S(=O)(=O)c2ccc(-c3ccnc(F)c3C)cc2)c(O)c1N(C)c1ccccc1 [Example 011, 6-butyl-3-((4-(2-fluoro-3-methylpyridin-4-yl)phenyl)sulfonyl)-5-(methyl(phenyl)amino)pyridine-2,4-diol]
9 | 0.01 to 10 | CCCCc1nc(O)c(S(=O)(=O)c2ccc(-c3ccc(F)nc3C)cc2)c(O)c1N(C)c1ccccc1 [Example 015, 6-butyl-3-((4-(6-fluoro-2-methylpyridin-3-yl)phenyl)sulfonyl)-5-(methyl(phenyl)amino)pyridine-2,4-diol]
10 | 0.01 to 10 | CCCCc1nc(O)c(S(=O)(=O)c2ccc(-c3cccnc3C)cc2)c(O)c1N(C)c1ccccc1 [Example 017, 6-butyl-5-(methyl(phenyl)amino)-3-((4-(2-methylpyridin-3-yl)phenyl)sulfonyl)pyridine-2,4-diol]

Same assay, conditions: HEK293 cells stably expressing human APJ receptor; inhibition of forskolin-mediated cAMP production; read-out: Human APJ cAMP Potency range

Row | EC50 [nM] | SMILES
11 | 0.01 to 10 | CCCCc1nc(O)c(C(=O)N2CCC(c3ncc(F)cc3F)C2)c(O)c1N(C)c1ccccc1F (stereo not shown) [Example 006, (6-butyl-5-((2-fluorophenyl)(methyl)amino)-2,4-dihydroxypyridin-3-yl)(3-(3,5-difluoropyridin-2-yl)pyrrolidin-1-yl)methanone]

Same assay, conditions: hAPJ cAMP EC50 Potency range, HEK293 cells stably expressing human APJ receptor; inhibition of forskolin-mediated cAMP production; Table 1

Row | SMILES | EC50 [nM]
12 | CCCCc1nc(O)c(C(=O)N2CC[C@H](c3ccccc3)C2)c(O)c1N1CCc2ccccc21 [Example 009, (R)-(6-butyl-2,4-dihydroxy-5-(indolin-1-yl)pyridin-3-yl)(3-phenylpyrrolidin-1-yl)methanone] | 10 to 100
13 | CCCCc1nc(O)c(C(=O)N2CC[C@H](c3ccccc3)C2)c(O)c1N(c1ccccc1)C(C)C [Example 023, (R)-(6-butyl-2,4-dihydroxy-5-(isopropyl(phenyl)amino)pyridin-3-yl)(3-phenylpyrrolidin-1-yl)methanone] | 10 to 100
